Measurements from PubChem BioAssay (NCI).
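Dose response: 5 concentrations. Exposure: 48 h. Format: 96-well plates. Endpoint: linear interpolation; highest concentration if not reached. The concentration for 50% growth inhibition is given as GI50. TGI denotes the concentration required for complete inhibition of growth.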

How the values were obtained:
Assay in all cases: NCI-60 cell line screen, 48 h
[1] = system: 786-0 renal
[2] = system: A498 renal
[3] = system: A549 NSCLC
[4] = system: ACHN renal
[5] = system: BT-549 breast
[6] = system: CCRF-CEM leukemia
[7] = system: COLO 205 colon
[8] = system: DU-145 prostate
[9] = system: EKVX NSCLC
[10] = system: HCC-2998 colon
[11] = system: HCT-116 colon
[12] = system: HCT-15 colon
[13] = system: HL-60(TB) leukemia
[14] = system: HOP-62 NSCLC
[15] = system: HOP-92 NSCLC
[16] = system: HS 578T breast
[17] = system: HT29 colon
[18] = system: IGROV1 ovarian
[19] = system: K-562 leukemia
[20] = system: KM12 colon
[21] = system: LOX IMVI melanoma
[22] = system: M14 melanoma
[23] = system: MALME-3M melanoma
[24] = system: MCF7 breast
[25] = system: MDA-MB-231 breast
[26] = system: MDA-MB-435
[27] = system: MOLT-4 leukemia
[28] = system: NCI-H226 lung
[29] = system: NCI-H23 lung
[30] = system: NCI-H460 lung
[31] = system: NCI-H522 lung
[32] = system: NCI/ADR-RES ovarian
[33] = system: OVCAR-4 ovarian
[34] = system: OVCAR-5 ovarian
[35] = system: OVCAR-8 ovarian
[36] = system: PC-3 prostate
[37] = system: RPMI-8226 leukemia
[38] = system: RXF 393 renal
[39] = system: SF-268 CNS
[40] = system: SF-295 CNS
[41] = system: SF-539 CNS
[42] = system: SK-MEL-2 melanoma
[43] = system: SK-MEL-28 melanoma
[44] = system: SK-MEL-5 melanoma
[45] = system: SK-OV-3 ovarian
[46] = system: SN12C renal
[47] = system: SNB-19 CNS
[48] = system: SNB-75 CNS
[49] = system: SR leukemia
[50] = system: SW-620 colon
[51] = system: T-47D breast
[52] = system: TK-10 renal
[53] = system: U251 CNS
[54] = system: UACC-257 melanoma
[55] = system: UACC-62 melanoma
[56] = system: UO-31 renal

SMILES: Oc1ccc(CSc2nnc(-c3ccncc3)o2)c2cccnc12
- GI50 [1]: 3.81 µM
- TGI [1]: 70.2 µM
- GI50 [2]: 2.64 µM
- TGI [2]: 9.52 µM
- GI50 [3]: 0.767 µM
- TGI [3]: > 100 µM
- GI50 [4]: 2.28 µM
- TGI [4]: 8.31 µM
- GI50 [5]: 1.71 µM
- TGI [5]: > 100 µM
- GI50 [6]: 2.53 µM
- TGI [6]: > 100 µM
- GI50 [7]: 4.32 µM
- TGI [7]: > 100 µM
- GI50 [8]: 0.779 µM
- TGI [8]: > 100 µM
- GI50 [9]: 2.74 µM
- TGI [9]: > 100 µM
- GI50 [10]: 3.38 µM
- TGI [10]: > 100 µM
- GI50 [11]: 0.68 µM
- TGI [11]: > 100 µM
- GI50 [12]: 2.74 µM
- TGI [12]: > 100 µM
- GI50 [13]: 2.9 µM
- TGI [13]: 50.7 µM
- GI50 [14]: 2.37 µM
- TGI [14]: > 100 µM
- GI50 [15]: 0.412 µM
- TGI [15]: 2.73 µM
- GI50 [16]: 0.751 µM
- TGI [16]: 58.7 µM
- GI50 [17]: 3.46 µM
- TGI [17]: > 100 µM
- GI50 [18]: 3.33 µM
- TGI [18]: > 100 µM
- GI50 [19]: 0.622 µM
- TGI [19]: > 100 µM
- GI50 [20]: 3.9 µM
- TGI [20]: > 100 µM
- GI50 [21]: 0.864 µM
- TGI [21]: > 100 µM
- GI50 [22]: 2.11 µM
- TGI [22]: > 100 µM
- GI50 [23]: 2.03 µM
- TGI [23]: 6.88 µM
- GI50 [24]: 0.403 µM
- TGI [24]: > 100 µM
- GI50 [25]: 1.89 µM
- TGI [25]: 4.87 µM
- GI50 [26]: 0.613 µM
- TGI [26]: > 100 µM
- GI50 [27]: 3.71 µM
- TGI [27]: > 100 µM
- GI50 [28]: 3.6 µM
- TGI [28]: > 100 µM
- GI50 [29]: 0.951 µM
- TGI [29]: > 100 µM
- GI50 [30]: 0.397 µM
- TGI [30]: > 100 µM
- GI50 [31]: 0.558 µM
- TGI [31]: > 100 µM
- GI50 [32]: 3.95 µM
- TGI [32]: > 100 µM
- GI50 [33]: 3.19 µM
- TGI [33]: > 100 µM
- GI50 [34]: 3.54 µM
- TGI [34]: > 100 µM
- GI50 [35]: 0.62 µM
- TGI [35]: > 100 µM
- GI50 [36]: 0.626 µM
- TGI [36]: 9.34 µM
- GI50 [37]: 0.524 µM
- TGI [37]: 4.02 µM
- GI50 [38]: 2.41 µM
- TGI [38]: > 100 µM
- GI50 [39]: 2.18 µM
- TGI [39]: > 100 µM
- GI50 [40]: 1.75 µM
- TGI [40]: 8.32 µM
- GI50 [41]: 2.18 µM
- TGI [41]: > 100 µM
- GI50 [42]: 2.11 µM
- TGI [42]: 7.66 µM
- GI50 [43]: 4.37 µM
- TGI [43]: > 100 µM
- GI50 [44]: 1.03 µM
- TGI [44]: 2.63 µM
- GI50 [45]: 3.11 µM
- TGI [45]: 9.81 µM
- GI50 [46]: 0.619 µM
- TGI [46]: 6.13 µM
- GI50 [47]: 1.47 µM
- TGI [47]: > 100 µM
- GI50 [48]: 1.52 µM
- TGI [48]: 25.5 µM
- GI50 [49]: 2.21 µM
- TGI [49]: > 100 µM
- GI50 [50]: 1.37 µM
- TGI [50]: > 100 µM
- GI50 [51]: 3.08 µM
- TGI [51]: > 100 µM
- GI50 [52]: 3.36 µM
- TGI [52]: > 100 µM
- GI50 [53]: 0.494 µM
- TGI [53]: > 100 µM
- GI50 [54]: 2.61 µM
- TGI [54]: 8.38 µM
- GI50 [55]: 2.87 µM
- TGI [55]: > 100 µM
- GI50 [56]: 1.83 µM
- TGI [56]: > 100 µM
